Where two headings read alike, the source gives them in different places. Marks after values point to notes of the source that are not given here.

Data set [1] has as its system A2780 cells. Description: Cell cycle analysis by flow cytometry. Type of data set: cell-based, human. The conditions noted are these: A2780, dark; equipotent photocytotoxic IC50 concentration, 1 h exposure + 1 h dark. The procedure: (§1) All flow cytometry experiments were carried out using a Becton Dickinson FACScan flow cytometer in the School of Life Sciences at Warwick University. Typically, cells were seeded in 6-well plates using 1.5 × 10^6 cells/well. Experiments included 24 h of preincubation in drug-free media at 310 K in a CO2 humidified atmosphere, followed by 1 h of drug exposure under the same conditions. After this, samples were irradiated for 1 h. For comparison, the dark plates were kept in the incubator for another 1 h. Supernatants were removed, cells were washed with PBS. Samples were then collected after trypsinization, washed with PBS, and stained in the dark with a mixture of propidium iodide and RNase. After 30 min of staining, the cell samples were washed and set up for flow cytometry reading on the red channel FL-2.
(§2) The effect of complexes 3 and 4 in the presence of light on the progression of the cell cycle was studied. Cells were exposed to prodrugs at equipotent photocytotoxic IC50 concentrations for 1 h in the dark and then irradiated for 1 h (465 nm, 4.8 mW/cm^2, 1 h). After 24 h of recovery, cells were stained in the dark with propidium iodide in the presence of RNase and then analyzed by flow cytometry.
A general note: A flow cytometer gives signals particle by particle.

The next data set concerns A2780cis cells. Description: Cell cycle analysis by flow cytometry. The data set is classed as cell-based, human. To be noted: dark, equipotent photocytotoxic IC50 concentration, 1 h exposure + 1 h dark. The procedure:
as §1, §2

In another data set the test system is OE19 cells. The data set can be described thus: Cell cycle analysis by flow cytometry. Type of data set: cell-based, human. To be noted: OE19, dark; equipotent photocytotoxic IC50 concentration, 1 h exposure + 1 h dark. The procedure:
as §1, §2

The test system of data set [2] is A2780 ovarian carcinoma cells. The conditions noted are these: for IC50: 1 h incubation, 24 h recovery.
Data set [3] relates to cisplatin-resistant A2780cis ovarian carcinoma cells. The conditions noted are these: 1 h incubation, 24 h recovery.
For data set [4], the system named is OE19 esophageal adenocarcinoma cells. Description: Photo/dark cytotoxicity (SRB assay). To be noted: 1 h incubation, 24 h recovery.
The subject of data set [5] is MRC5 normal fibroblast cells. Description: Photo/dark cytotoxicity (SRB assay). Background: The SRB assay estimates cell density from bound dye.
Data set [6] concerns A2780 ovarian carcinoma cells. The data set can be described thus: cells. To be noted: Homo sapiens, A2780, light or radiation study.
Data set [7] relates to cisplatin-resistant A2780cis ovarian carcinoma cells. The data set can be described thus: cells. The conditions noted are these: Homo sapiens, light or radiation study.
For data set [8], the system named is A2780 cells. The data set can be described thus: Pt accumulation in cancer cells (ICP-MS). The conditions noted are these: equipotent IC50 concentration, 1 h, in the dark. The data set is classed as cell-based, human.
Data set [9] deals with plasmid pUC19 linearized by EcoRI. The data set can be described thus: Formation of DNA interstrand cross-links. The data set is classed as biochemical. The conditions noted are these: irradiated with blue light 1 h + 23 h dark, 10 mM NaClO4, 310 K; rb 0.003 and 0.0006 (FM-190) or 0.00015 and 0.0003 (1, 4). The procedure: Solutions of the plasmid pUC19 linearized by EcoRI (50 μg/mL) were incubated with the Pt complex under irradiation conditions (for 1 h and subsequently incubated in the dark for an additional 23 h) at various ri values in NaClO4 (10 mM) at 310 K. Autoradiograms were recorded of denaturing 1% agarose gel of linearized DNA, which was 3′-end-labeled and nonmodified or modified by FM-190, 1, and 4 photoactivated by visible light.
Therefore, we investigated the capability of irradiated 1 and 4 to form DNA interstrand cross-links as well. Plasmid pUC19 linearized by EcoRI (50 μg mL^–1) and the Pt complex were irradiated with blue light for 1 h and subsequently incubated in the dark for an additional 23 h in NaClO4 (10 mM) at 310 K. The plasmid was modified to the extent corresponding to the rb values of 0.003 and 0.0006 (in the case of FM-190) or 0.00015 and 0.0003 (in the case of 1 and 4) and analyzed by agarose gel electrophoresis under denaturing conditions (Figure 5C). Interstrand cross-linked DNA appears as the top band (marked as ICLs), migrating on the gel more slowly than single-stranded DNA (contained in the bottom bands and marked as ss). […] It is, therefore, reasonable to envisage that the treatment of DNA by irradiated dinuclear 1 or 4 results in the formation of trans GG interstrand DNA cross-links as in the case of the treatment with mononuclear complex FM-190.

The subject of data set [10] is negatively supercoiled pSP73KB plasmid. More on the design: method as in PMID 22420335. The conditions noted are these: photoactivated, identical conditions; cited from earlier work.
The subject of the next data set is parental A2780 cells. More on the design: method as in PMID 20677309. To be noted: cited from earlier work.
Where [11] appears, read: A2780, irrad, 1 h irradiation (465 nm, 4.8 mW/cm^2).
Where [12] appears, read: MRC5 normal cells, dark, 1 h incubation, 1 h dark, 24 h recovery.
Where [13] appears, read: MRC5 normal cells, irrad, 1 h incubation, 1 h irradiation (465 nm), 24 h recovery.

With `[NH2][Pt]([NH2])([Cl])[Cl]` [CDDP, cisplatin], the “% Cell Population, G1 phase” value is reported as 32.1±0.5% in the data set on A2780 cells [1], 64.2±2.8% in the data set with A2780cis cells and 36.3±1.2% with OE19 cells. The “% Cell Population, G2/M phase” value in the data set on A2780 cells [1] is 67.4±0.9%; in the data set with A2780cis cells, 22.0±0.4%; in the data set on OE19 cells, 45.5±0.9%. Further, the “% Cell Population, S phase” value in the data set on A2780 cells [1] is on record as 0.4±0.5%; in the data set with A2780cis cells, 13.8±2.4%; in the data set on OE19 cells it was 18.2±0.3%. For the same compound, the 50% inhibitory concentration (IC50) (usually the concentration at which inhibition is half-maximal) in [2] (A2780, dark, 1 h dark) is more than 100 µM; in data set [2] (setting [11]), more than 100 µM; in [3] (dark, 1 h dark), more than 100 µM; in data set [3] (irrad, 1 h irradiation (465 nm, 4.8 mW/cm^2)) it was more than 100 µM; in [4] (OE19, dark, 1 h dark), more than 100 µM; in data set [4] (OE19, irrad, 1 h irradiation (465 nm, 4.8 mW/cm^2)), more than 100 µM. Further, the 50% inhibitory concentration (IC50) in data set [5] (setting [12]) and in data set [5] (setting [13]) was more than 100 µM throughout.

`CN(C)CCCN1c2ccccc2Sc2ccc(Cl)cc21` [CPZ, chlorpromazine]: the IC50 in [6] is 6 ± 0.3 µM; in data set [7], 6 ± 0.3 µM; in data set [5] (Homo sapiens, MRC5), more than 100 µM; in data set [5] (Homo sapiens, MRC5, light or radiation study) it was more than 50 µM.

“trans,trans,trans-[Pt(N3)2(OH)2(py)2] [FM-190]”: in the data set with A2780 cells [8], the platinum accumulation is 0.8 ± 0.2 ^b ng/10^6 cells. Further, in data set [9], the “frequencies of interstrand cross-linking” value was found to be 12.5 ± 0.5. Further, in data set [2] (A2780, dark vs irradiated (465 nm)), the “PI (photocytotoxicity index)” value was more than 14.0. For the same compound, the IC50 is more than 100 µM in data set [2] (A2780, dark, 1 h dark); 7.1 ± 0.4 µM in data set [2] (setting [11]); 1.4 µM in the data set with parental A2780 cells (parental A2780, irradiation with UVA (365 nm)); more than 100 µM in data set [5] (setting [12]); more than 100 µM in data set [5] (setting [13]). Further, in [10], the DNA unwinding angle is 28 ± 4 °. Besides, the “toxicity to parental A2780 compared with A2780cis” value with parental A2780 cells (irradiation with UVA (365 nm)) is 10 times.

The values are drawn from publication PMC6257630, “Photoactivatable Cell-Selective Dinuclear trans-Diazidoplatinum(IV) Anticancer Prodrugs” (Inorganic Chemistry, 2018).
